Data taken from patent US20160002204A1 (Board of Regents, The University of Texas System, priority 2014, published 2016).

What was measured:
[1] = biological target: T1, GLS1 (purified recombinant human GAC) (Homo sapiens, UniProt O94925); test: GLS1 enzymatic activity assay (dual-coupled, Amplex UltraRed/resorufin); assay type: biochemical
T1 sequence (O94925 55-598 isoform O94925-3 limits assumed): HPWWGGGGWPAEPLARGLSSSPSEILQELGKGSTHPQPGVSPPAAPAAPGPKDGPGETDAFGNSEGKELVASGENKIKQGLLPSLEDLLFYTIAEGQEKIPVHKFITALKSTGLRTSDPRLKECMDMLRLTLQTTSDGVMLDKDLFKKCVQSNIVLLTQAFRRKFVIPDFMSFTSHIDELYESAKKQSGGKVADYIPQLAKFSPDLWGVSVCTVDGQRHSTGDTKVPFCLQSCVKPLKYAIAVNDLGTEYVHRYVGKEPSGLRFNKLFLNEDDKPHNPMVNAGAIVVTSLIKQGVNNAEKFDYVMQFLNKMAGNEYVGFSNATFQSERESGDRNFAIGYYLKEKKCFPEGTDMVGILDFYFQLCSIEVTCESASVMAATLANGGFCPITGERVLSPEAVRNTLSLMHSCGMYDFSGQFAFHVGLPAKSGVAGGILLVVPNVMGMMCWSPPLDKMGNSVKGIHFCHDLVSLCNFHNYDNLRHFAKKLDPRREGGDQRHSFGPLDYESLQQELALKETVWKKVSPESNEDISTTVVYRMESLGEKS
Summary of the method: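 In this coupled fluorometric format, phosphate-activated GAC (2 nM, 50 mM phosphate) is pre-exposed to compound for 10 min before 1 mM glutamine addition. Product is tracked as resorufin (530/590 nm) over time or at 20 min, and potency is derived by logistic fitting.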

A549 cells = test: A549 proliferation (viability) assay, Cell Titer Fluor, 72 hours; assay type: cell-based; details: Homo sapiens
Summary of the method: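 Seed A549 at 1000 cells/well and culture 24 h. Add compound (final DMSO 0.5%) and incubate 72 h at 37 °C. Add Cell Titer Fluor, mix 15 min, incubate 30 min, read fluorescence and fit EC50 by four-parameter logistic.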

IC50 [1] [nM]	EC50 (A549 cells) [nM]	Structure (SMILES)
< 100	< 100	O=C(Nc1ccn(CCC(F)Cn2cc(C(=O)NCc3cccc(OC(F)(F)F)c3)nn2)c(=O)n1)OC1CCCCC1 (stereo not drawn) [Example 383, cyclohexyl N-(1-{3-fluoro-4-[4-({[3-(trifluoromethoxy)phenyl]methyl}carbamoyl)-1H-1,2,3-triazol-1-yl]butyl}-2-oxo-1,2-dihydropyrimidin-4-yl)carbamate]
< 100	100 to 500	O=C(CC1CCC1)Nc1ccn(CCC(F)Cn2cc(C(=O)NCc3ccc(CF)nc3)nn2)c(=O)c1F (stereo not drawn) [Example 374, 1-{4-[4-(2-cyclobutylacetamido)-3-fluoro-2-oxo-1,2-dihydropyridin-1-yl]-2-fluorobutyl}-N-{[6-(fluoromethyl)pyridin-3-yl]methyl}-1H-1,2,3-triazole-4-carboxamide]
500 to 5000	> 5000	O=C(Nc1ccn(CCC(F)Cn2cc(C(=O)NCc3cccc(OC(F)(F)F)c3)nn2)c(=O)n1)NC1CCC1 (stereo not drawn) [Example 499, 1-(4-{4-[(cyclobutylcarbamoyl)amino]-2-oxo-1,2-dihydropyrimidin-1-yl}-2-fluorobutyl)-N-{[3-(trifluoromethoxy)phenyl]methyl}-1H-1,2,3-triazole-4-carboxamide]
500 to 5000	500 to 5000	CO[C@@H](C(=O)Nc1ccn(CC(F)CCn2cc(C(=O)NCc3cccc(OC(F)(F)F)c3)nn2)c(=O)c1F)c1ccccc1 (stereo partly drawn) [Example 310, 1-(3-fluoro-4-{3-fluoro-4-[(2R)-2-methoxy-2-phenylacetamido]-2-oxo-1,2-dihydropyridin-1-yl}butyl)-N-{[3-(trifluoromethoxy)phenyl]methyl}-1H-1,2,3-triazole-4-carboxamide]
< 100	> 5000	O=C(Cc1ccccc1)Nc1nnc(CCCCn2ccc(NC(=O)[C@H](O)c3ccccc3)nc2=O)s1 [Example 84, (2R)-2-hydroxy-N-(2-oxo-1-{4-[5-(2-phenylacetamido)-1,3,4-thiadiazol-2-yl]butyl}-1,2-dihydropyrimidin-4-yl)-2-phenylacetamide]
100 to 500	> 5000	Cn1cc(CC(=O)Nc2ccn(CCCCn3cc(C(=O)NCc4cccc(OC(F)(F)F)c4)nn3)c(=O)c2)cn1 [Example 46, 1-(4-{4-[2-(1-methyl-1H-pyrazol-4-yl)acetamido]-2-oxo-1,2-dihydropyridin-1-yl}butyl)-N-{[3-(trifluoromethoxy)phenyl]methyl}-1H-1,2,3-triazole-4-carboxamide]
500 to 5000	> 5000	N#CCC(=O)Nc1ccn(CCC(F)Cn2cc(C(=O)NCc3cccc(OC(F)(F)F)c3)nn2)c(=O)c1 (stereo not drawn) [Example 188, 1-{4-[4-(2-cyanoacetamido)-2-oxo-1,2-dihydropyridin-1-yl]-2-fluorobutyl}-N-{[3-(trifluoromethoxy)phenyl]methyl}-1H-1,2,3-triazole-4-carboxamide]
< 100	500 to 5000	O=C(CN1CCCC(CO)C1)Nc1ccn(CCC(F)Cn2cc(C(=O)NCc3cccc(OC(F)(F)F)c3)nn2)c(=O)c1 (stereo not drawn) [Example 257, 1-[2-fluoro-4-(4-{2-[3-(hydroxymethyl)piperidin-1-yl]acetamido}-2-oxo-1,2-dihydropyridin-1-yl)butyl]-N-{[3-(trifluoromethoxy)phenyl]methyl}-1H-1,2,3-triazole-4-carboxamide]
< 100	100 to 500	O=C(NCc1cccc(OC(F)(F)F)c1)c1cn(CC(F)CCn2ccc(COc3cccc(F)c3)cc2=O)nn1 (stereo not drawn) [Example 472, 1-{2-fluoro-4-[4-(3-fluorophenoxymethyl)-2-oxo-1,2-dihydropyridin-1-yl]butyl}-N-{[3-(trifluoromethoxy)phenyl]methyl}-1H-1,2,3-triazole-4-carboxamide]
100 to 500	500 to 5000	O=C(Nc1ccn(CCCCn2cc(C(=O)NCc3ccccn3)nn2)c(=O)c1)OCc1ccccc1 [Example 57, benzyl N-[2-oxo-1-(4-{4-[(pyridin-2-ylmethyl)carbamoyl]-1H-1,2,3-triazol-1-yl}butyl)-1,2-dihydropyridin-4-yl]carbamate]
100 to 500	> 5000	O=C(CC1CCCCC1)Nc1ccn(CCCCn2cc(C(=O)NC(CO)c3ccccc3)nn2)c(=O)c1 (stereo not drawn) [Example 192, 1-{4-[4-(2-cyclohexylacetamido)-2-oxo-1,2-dihydropyridin-1-yl]butyl}-N-(2-hydroxy-1-phenylethyl)-1H-1,2,3-triazole-4-carboxamide]
100 to 500	500 to 5000	CC(C)NC(=O)Nc1ccn(CCCCc2ccc(NC(=O)Cc3cccc(OC(F)(F)F)c3)nn2)c(=O)n1 [Example 106, N-{6-[4-(2-oxo-4-{[(propan-2-yl)carbamoyl]amino}-1,2-dihydropyrimidin-1-yl)butyl]pyridazin-3-yl}-2-[3-(trifluoromethoxy)phenyl]acetamide]
< 100	100 to 500	CS(=O)(=O)N1CCC(CC(=O)Nc2ccn(CCC(F)Cn3cc(C(=O)NCc4cccc(OC(F)(F)F)c4)nn3)c(=O)c2F)CC1 (stereo not drawn) [Example 302, 1-(2-fluoro-4-{3-fluoro-4-[2-(1-methanesulfonylpiperidin-4-yl)acetamido]-2-oxo-1,2-dihydropyridin-1-yl}butyl)-N-{[3-(trifluoromethoxy)phenyl]methyl}-1H-1,2,3-triazole-4-carboxamide]
< 100	500 to 5000	Cc1ccc(CNC(=O)c2cn(CC(F)CCn3ccc(NC(=O)CC4CCCOC4)cc3=O)nn2)cn1 (stereo not drawn) [Example 196, 1-(2-fluoro-4-{4-[2-(oxan-3-yl)acetamido]-2-oxo-1,2-dihydropyridin-1-yl}butyl)-N-[(6-methylpyridin-3-yl)methyl]-1H-1,2,3-triazole-4-carboxamide]
< 100	500 to 5000	Cc1cccc(CNC(=O)c2cn(CCC(F)Cn3ccc(NC(=O)Cc4ccccc4)cc3=O)nn2)n1 (stereo not drawn) [Example 162, 1-{3-fluoro-4-[2-oxo-4-(2-phenylacetamido)-1,2-dihydropyridin-1-yl]butyl}-N-[(6-methylpyridin-2-yl)methyl]-1H-1,2,3-triazole-4-carboxamide]
< 100	< 100	O=C(CC1CCCC1)Nc1ccn(CCC(F)Cn2cc(C(=O)NCc3cc(C(F)(F)F)ccn3)nn2)c(=O)c1F (stereo not drawn) [Example 329, 1-{4-[4-(2-cyclopentylacetamido)-3-fluoro-2-oxo-1,2-dihydropyridin-1-yl]-2-fluorobutyl}-N-{[4-(trifluoromethyl)pyridin-2-yl]methyl}-1H-1,2,3-triazole-4-carboxamide]
< 100	100 to 500	O=C(Cc1ccccc1F)Nc1ccn(CCCCn2cc(C(=O)NCc3cccc(OC(F)(F)F)c3)nn2)c(=O)c1 [Example 55, 1-(4-{4-[2-(2-fluorophenyl)acetamido]-2-oxo-1,2-dihydropyridin-1-yl}butyl)-N-{[3-(trifluoromethoxy)phenyl]methyl}-1H-1,2,3-triazole-4-carboxamide]
< 100	100 to 500	O=C(CC1CCC1)Nc1ccn(CCCCn2cc(C(=O)NCc3cccc(OC(F)(F)F)c3)nn2)c(=O)c1 [Example 201, 1-{4-[4-(2-cyclobutylacetamido)-2-oxo-1,2-dihydropyridin-1-yl]butyl}-N-{[3-(trifluoromethoxy)phenyl]methyl}-1H-1,2,3-triazole-4-carboxamide]
